The results in this text go back to paper PMC12653048 (2025).

Assay [1] deals with s12_13_82m7 (DNA, aptamer) GCGCGATCAAGGTCGGAGCGTTTTCGCGGAGTCGGCTGGATCGCGC
Nature of the assay: ITC. Particulars: 50 mM Na+, 3 mM Mg2+; BB: 20 mM Tris-acetate, pH 7.4, 25 °C.

Assay [2] has as its system s12_13_82 (DNA, aptamer) ATACCAGCTTATTCAATTCAGGGCGGTATGAGGCTCGATCAAGGTCGGAGCGAGAATTTTTTCGCGGAGTCGGCTGGATCAGATAGTAAGTGCAATCT
Nature of the assay: ITC. Particulars: 50 mM Na+, 3 mM Mg2+; BB: 20 mM Tris-acetate, pH 7.4, 25 °C.

For assay [3], the system named is s12_13_82m6 (DNA, aptamer) GCGCGATCAAGGTCGGAGCGCAGTTGCGGAGTCGGCTGGATCGCGC
As to the kind of experiment: ITC. Particulars: 50 mM Na+, 3 mM Mg2+; BB: 20 mM Tris-acetate, pH 7.4, 25 °C.

Assay [4] relates to s25_Kana6-1 (DNA, aptamer) GACGACGAGGGCCTGAAACTTGCTGGAACGGTTAAAGTCGTC
Nature of the assay: ITC. Particulars: 300 mM Na acetate, 10 mM Mg2+, 5 mM K+; SB3: 50 mM MES-NaOH, pH 7.0, 25 °C.

Assay [5] has as its system s12_13_82m8 (DNA, aptamer) GCGATCAAGGTCGGAGCGTTTTCGCGAGTCGGCTGGATCGC
Nature of the assay: ITC. Particulars: 50 mM Na+, 3 mM Mg2+; BB: 20 mM Tris-acetate, pH 7.4, 25 °C.

The test system of assay [6] is s11_Kana2 (DNA, aptamer) CACCTAATACGACTCACTATAGCGGATCCGAAGATGGGGGTTGAGGCTAAGCCGACCGTAAGTTGGGCCGTCTGGCTCGAACAAGCTTGC
Nature of the assay: ITC. Particulars: 50 mM Na acetate, 5 mM K+, 5 mM Mg2+; SB1: 20 mM Tris-acetate, pH 8.0, 25 °C; 20.8 μM aptamer, 300 μM KANA in syringe; KD above 200 μM undetectable.

Assay [7] has as its system s25_Kana6-5 (DNA, aptamer) GACGACGCAGTTGGCTTAGCGTAGGTAAAGGTCGATGTCGTC
As to the kind of experiment: ITC. Particulars: 300 mM Na acetate, 10 mM Mg2+, 5 mM K+; SB3: 50 mM MES-NaOH, pH 7.0, 25 °C.

For assay [8] the test system is unchanged. As to the kind of experiment: CD spectroscopy. Particulars: 300 mM Na acetate, 10 mM Mg2+, 5 mM K+; SB3: 50 mM MES-NaOH, pH 7.0, 25 °C; 2 μM aptamer, 20 μM KANA.
For assay [9], the system named is s12_13_82 (DNA, aptamer) ATACCAGCTTATTCAATTCAGGGCGGTATGAGGCTCGATCAAGGTCGGAGCGAGAATTTTTTCGCGGAGTCGGCTGGATCAGATAGTAAGTGCAATCT
As to the kind of experiment: CD spectroscopy. Particulars: 50 mM Na acetate, 3 mM Mg2+; BB: 20 mM Tris-acetate, pH 7.4, 25 °C; 2 μM aptamer, 20 μM KANA.

For assay [10], the system named is s21_K16 (DNA, aptamer) CGCATACCAGCTTAGTTCAGAATTCATTGGAGCGTGGCGTGGATGCCCGATGAACCGCCCCAGGGTGCAGATAGTAAGTGCAATCTCGGC
Nature of the assay: ITC. Particulars: 100 mM Na acetate, 2 mM Mg2+, 5 mM K+, 1 mM Ca2+; SB2: 20 mM Tris-acetate, pH 7.6, 25 °C; 30 μM aptamer, 350 μM KANA in syringe; KD above 300 μM undetectable.

The test system of assay [11] is s12_13_82m1 (DNA, aptamer) GATCAAGGTCGGAGCGAGAATTTTTTCGCGGAGTCGGCTGGATC
Nature of the assay: ITC. Particulars: 50 mM Na+, 3 mM Mg2+; BB: 20 mM Tris-acetate, pH 7.4, 25 °C.

The test system of assay [12] is s25_Kana6-1 (DNA, aptamer) GACGACGAGGGCCTGAAACTTGCTGGAACGGTTAAAGTCGTC
As to the kind of experiment: CD spectroscopy. Particulars: 300 mM Na acetate, 10 mM Mg2+, 5 mM K+; SB3: 50 mM MES-NaOH, pH 7.0, 25 °C; 2 μM aptamer, 20 μM KANA.

The test system of assay [13] is s21_K16 (DNA, aptamer) CGCATACCAGCTTAGTTCAGAATTCATTGGAGCGTGGCGTGGATGCCCGATGAACCGCCCCAGGGTGCAGATAGTAAGTGCAATCTCGGC
Nature of the assay: CD spectroscopy. Particulars: 100 mM Na acetate, 2 mM Mg2+, 5 mM K+, 1 mM Ca2+; SB2: 20 mM Tris-acetate, pH 7.6, 25 °C; 2 μM aptamer, 20 μM KANA.

Assay [14] deals with s12_13_82m2 (DNA, aptamer) GCGATCAAGGTCGGAGCGAGAATTTTTTCGCGGAGTCGGCTGGATCGC
As to the kind of experiment: ITC. Particulars: 50 mM Na+, 3 mM Mg2+; BB: 20 mM Tris-acetate, pH 7.4, 25 °C.

Assay [15] has as its system s12_13_82m5 (DNA, aptamer) GCGATCAAGGTCGGAGCGAGTTCGCGGAGTCGGCTGGATCGC
As to the kind of experiment: ITC. Particulars: 50 mM Na+, 3 mM Mg2+; BB: 20 mM Tris-acetate, pH 7.4, 25 °C.

Turning to `CN[C@@H]1[C@H](O[C@H]2[C@H](O[C@H]3[C@H](O)[C@@H](O)[C@H](N=C(N)N)[C@@H](O)[C@@H]3N=C(N)N)O[C@@H](C)[C@]2(O)C=O)O[C@@H](CO)[C@H](O)[C@H]1O`, the binding result in assay [1] and in assay [2] was “no” throughout.
Consider `NC[C@@H]1O[C@H](O[C@H]2[C@@H](O)[C@H](O[C@@H]3[C@@H](O)[C@H](N)C[C@H](N)[C@H]3O[C@H]3O[C@H](CN)[C@@H](O)[C@H](O)[C@H]3N)O[C@@H]2CO)[C@H](N)[C@@H](O)[C@@H]1O`, for which the binding result in assay [1] and in assay [2] was “no” in each case.
For `NC[C@H]1O[C@H](O[C@H]2[C@H](O)[C@@H](O[C@H]3O[C@H](CO)[C@@H](O)[C@H](N)[C@H]3O)[C@H](N)C[C@@H]2N)[C@H](O)[C@@H](O)[C@@H]1O`, the KD in assay [3] came out at 0.000519 ± 4.84e-05 mM; in assay [4], 2.23 ± 0.24 µM; in assay [5], 0.0022 ± 0.000352 mM; in assay [7] it was 0.87 ± 0.04 µM; in [1], 0.000109 ± 1.49e-05 mM; in assay [2] it was 0.00047 ± 4e-05 mM. Further, the results for the KD in assay [11], in [14] and in assay [15] were 0.096 ± 0.0087 µM, 0.000101 ± 8e-06 mM and 0.000106 ± 8.7e-06 mM, respectively. In addition, the binding entry is “no” in assay [6]; “yes” in assay [8]; “yes” in [9]; “no” in [10]; “yes” in assay [12]; “no” in [13].

As usually defined, the KD is the constant that tells how readily two partners part at equilibrium. Read a high KD as a looser complex.
